According to patent publication US20240261443A1, “COMPOUNDS AND COMPOSITIONS USEFUL AS RADIOTRACERS FOR IMAGING OF REACTIVE OXIDATIVE SPECIES” (Wake Forest University Health Sciences, priority 2019, published 2024):

Key:
[1] = test system: rSCC-61 tumors; test: Post-PET biodistribution, rSCC-61 tumor-bearing mice; type: in vivo
Procedure: (§1) Subsequently, post-PET biodistribution was performed in the same SCC-61 or rSCC-61 tumor-bearing mice injected with [^18F]KS1 (FIG. 16). […] High kidney and liver uptake were common with [^18F]radiotracer's distribution at 30 min post-injection.

[2] = Ex vivo biodistribution in normal ICR mice; settings: for blood uptake / kidney uptake / liver uptake: in %ID/g (unit assumed)
[3] = test system: SCC-61 tumors; test: Post-PET biodistribution, SCC-61 tumor-bearing mice; type: in vivo
Procedure: as §1

[4] = test system: PC3 cell line; test: MTT cytotoxicity IC50 assay, PC3; type: cell-based, human; settings: Homo sapiens
Procedure: The cells were seeded at density 5×10^3 cells/well. After 24 h pre-incubation period, cells were treated with 0.01 mM to 2.0 mM of freshly prepared KS1 and KS2 along with ascorbate (n=3) for 48 h. 0.2% of DMSO served as vehicle control. After 48 h, the solutions were removed from all plates and MTT assays performed following the published protocols. IC50 values are presented as mean±SD from at least three independent experiments.
There is growing evidence for a therapeutic role of ascorbate against several cancers (Creagan et al., Failure of High-Dose Vitamin C (Ascorbic Acid) Therapy to Benefit Patients with Advanced Cancer. New England Journal of Medicine 1979, 301 (13), 687-690; Chen et al., Pharmacologic ascorbic acid concentrations selectively kill cancer cells: action as a pro-drug to deliver hydrogen peroxide to tissues. Proceedings of the National Academy of Sciences of the United States of America 2005, 102 (38), 13604-13609; Prasad et al., High Doses of Multiple Antioxidant Vitamins: Essential Ingredients in Improving the Efficacy of Standard Cancer Therapy. Journal of the American College of Nutrition 1999, 18 (1), 13-25). Pharmacologic doses of ascorbate (oral and/or intravenous) could increase the effectiveness of cancer chemotherapy in many solid cancer therapies (López-Lizaro, Dual role of hydrogen peroxide in cancer: Possible relevance to cancer chemoprevention and therapy. Cancer Letters 2007, 252 (1), 1-8; Li et al., New Developments and Novel Therapeutic Perspectives for Vitamin C. The Journal of Nutrition 2007, 137 (10), 2171-2184; Klimant et al., Intravenous vitamin C in the supportive care of cancer patients: a review and rational approach. Current Oncology 2018, 25 (2), 139-148. The primary objective of this experiment was to determine the cytotoxic effects of KS1 at pharmacological concentrations. Cancer cell lines were selected based on their high ROS implications. […] These cell lines have been studied extensively with ascorbic acid treatments (Schoenfeld et al., O(2)(·−) and H(2)O(2)-Mediated Disruption of Fe Metabolism Causes the Differential Susceptibility of NSCLC and GBM Cancer Cells to Pharmacological Ascorbate. Cancer Cell 2017, 31 (4), 487-500.e8; Chen et al., Modulators of Redox Metabolism in Head and Neck Cancer. Antioxidants & Redox Signaling 2017, 29 (16), 1660-1690; Khandrika et al., Oxidative stress in prostate cancer. Cancer Lett 2009, 282 (2), 125-136.

[5] = test system: normal organs; test: Toxicity observation in blocking studies, KS1 15 mg/kg; type: in vivo; settings: 15 mg/kg injected
Procedure: Athymic nude mice (Taconic Farms) were housed in a pathogen-free facility of the Animal Research Program at Wake Forest School of Medicine under a 12:12-h light/dark cycle and fed ad libitum. All animal experiments were conducted under IACUC approved protocols in compliance with the guidelines for the care and use of research animals established by Wake Forest Medical School Animal Studies Committee. PC3 cells (1×10^5 cells suspended in 10 μL matrigel) were implanted in the left flank of nude mice (25-30 g) as described previously. […] Samples of tumor, blood, brain, heart, lung, liver, spleen, pancreas, kidney, muscle and bone were harvested, weighed, and gamma counted with a standard dilution of the injectate (Chu et al., Development of a PET Radiotracer for Noninvasive Imaging of the Reactive Oxygen Species, Superoxide, in vivo. Organic & biomolecular chemistry. 2014; 12:4421-31; Sai et al., Radiolabeling and initial biological evaluation of [(18)F]KBM-1 for imaging RAR-α receptors in neuroblastoma. Bioorganic & medicinal chemistry letters. 2017; 27:1425-7; Kumar et al., Radiosynthesis and in Vivo Evaluation of [11C]MPC-6827, the First Brain Penetrant Microtubule PET Ligand. […] The percentage of the injected dose per gram of tissue (% ID/g) was calculated.

Row | target (tumor) to non-target (muscle) ratio [1] | blood uptake ([2]; 5 min post injection) | kidney uptake ([2]; 5 min post injection) | liver uptake ([2]; 5 min post injection) | blood uptake ([2]; 120 min post injection) | kidney uptake ([2]; 120 min post injection) | liver uptake ([2]; 120 min post injection) | bone uptake ([2]; normal ICR mice) | brain uptake ([2]; normal ICR mice) | target (tumor) to non-target (muscle) ratio ([3]; SCC-61 tumors, post-PET) | enrichment in SCC-61 tumors over rSCC-61 tumors ([3]; tumor: muscle ratio) [fold] | Structure (SMILES) | IC50 ([4]; PC-3, Example 7, 48 h) [µM] | IC50 ([4]; PC-3, Example 13) [µM] | toxicity in normal organs [5]
1 | 4.11 | 1.361±0.71 | 14.793±1.33 | 9.72±2.55 | 0.31±0.071 | 3.23±1.30 | 2.124±1.12 | No significant bone uptake | Poor brain uptake | 10.93 | ~2.5 | O=C1O/C(=C/CCl)C(O)=C1OCc1ccc(OCC[18F])cc1 [[^18F]KS1] | – | – | –
2 | – | – | – | – | – | – | – | – | – | – | – | O=C1O/C(=C/CCl)C(O)=C1OCc1ccc(OCCF)cc1 [KS1, (E)-5-(2-chloroethylidene)-3-(4-(2-fluoroethoxy)benzyloxy)-4-hydroxyfuran-2(5H)-one] | 311 | 1010 | did not observe any toxicity
